Measured values as given in ChEMBL document CHEMBL1136194, “Discovery and evaluation of 3-(5-thien-3-ylpyridin-3-yl)-1H-indoles as a novel class of KDR kinase inhibitors” (Bioorg Med Chem Lett, 2003).
Values after ≈ are worked out from the molar mass of the structure shown.

Assays:
[1] = Solubility was determined; assay type: physicochemical
[2] = Partition coefficient (logP); assay type: physicochemical; details: octanol/water
[3] = Solubility at pH 5.2 was determined; assay type: physicochemical; details: buffer
[4] = Oral bioavailability in rat (dose 20 mg/kg p.o.); assay type: ADME, organism-based; details: in vivo
[5] = Pharmacokinetic property (Vdss) for the compound (5 mg/kg iv) was determined in rats; assay type: ADME, organism-based; details: rat, in vivo, read-out: Vdss
[6] = Pharmacokinetic property (Clearance) for the compound (5 mg/kg iv) was determined in rats; assay type: ADME, organism-based; details: rat, in vivo
[7] = Pharmacokinetic property (t1/2) for the compound ([…] mg/kg iv) was determined in rats; assay type: ADME, organism-based; details: rat, in vivo, 5 mg/kg
[8] = Solubility at pH 7.4 was determined; assay type: physicochemical; details: buffer

SMILES | solubility [1] [µg/mL] | logP [2] | solubility [3] [µg/mL] | bioavailability [4] [%] | Vd [5] [L/kg] | clearance [6] [mL/min/kg] | half-life [7] [h] | solubility [8] [µg/mL]
CC(=O)Nc1oc(-c2cc3ccccc3cc2O)nc1-c1ccccc1 | < 5 | > 4.1 | – | – | – | – | – | –
c1ccc2c(c1)c(-c1cncc(-c3ccsc3)c1)cn2CCN1CCOCC1 | – | 3.3 | 24 (≈ 61.6 µM) | 35 | 7.2 | 65 | 1.9 | 5 (≈ 12.8 µM)
c1ccc2c(c1)c(-c1cncc(-c3ccsc3)c1)cn2CCCN1CCCCC1 | – | – | 177 (≈ 441 µM) | 28 | 1.8 | 15 | 1.6 | < 5
CN1CCN(CCCn2cc(-c3cncc(-c4ccsc4)c3)c3ccccc32)CC1 | – | 3.7 | 18200 (≈ 43600 µM) | 33 | 1.7 | 13 | 1.8 | > 205
